Here are results for 1 compound from article PMC6368403, “Identification of a bilirubin receptor that may mediate a component of cholestatic itch” (eLife, 2019).

The subject of test [1] is Mrgpr-cluster KO DRG neurons. Nature of the test: Ca2+ imaging of Mrgpr-cluster KO DRG neurons infected with lentivirus encoding Mrgpra1, MRGPRX4 or MRGPRX3. The conditions noted are these: 50 µM bilirubin (Fig 3J). Type of test: cell-based, mouse. On the procedure: DRGs were incubated with Fluo-4 AM 24 hr after dissociation (native genotype) or 48 hr after dissociation (virally transduced). Unless otherwise noted, cells were imaged for 20 seconds to establish a baseline before compounds were added. After 30 s, a 2 min wash was applied before addition of another substances. At the end of every imaging trial, 50 mM KCl was added as a positive control. […] For ruthenium red inhibitor experiments, neurons were incubated with 10 µM ruthenium red for 5 min prior to imaging. Percentage activated was determined as earlier described.
(§1) DRG neurons from all spinal levels were collected in cold DH10 media (90% Dulbecco’s modified Eagle’s medium (DMEM)/F-12, 10% FBS, penicillin (100 U/mL), and streptomycin (100 μg/mL)). DRGs were digested with a dispase (5 mg/ml)/collagenase type I (1 mg/ml) enzyme mixture at 37°C for 45 min. After trituration, cells were spun at 300 g and re-suspended in DH10 before being plated on glass coverslips coated with poly-D-lysine (0.5 mg/ml) and laminin (10 μg/ml, Invitrogen). DRGs were cultured with DH10 supplemented with 50 ng/mL NGF at 37°C.
Lentiviruses encoding various cDNA for MRGPRs were generated using psPAX2 and pMD2.G. Virus was pelleted by centrifugation at 100,000 g for 4 hr, gently washed with twice with DH10 medium, and suspended in DH10. One day after DRG isolation and culture, DRGs were infected with lentivirus […]. The following morning, medium was completely replaced with fresh DH10 supplemented with 50 ng/mL NGF. 24 hr after infection, cells were processed for calcium imaging.

Test [2] deals with small-diameter DRG sensory neurons. Nature of the test: Whole-cell current-clamp recording of DRG neurons. Type of test: cell-based, mouse. The conditions noted are these: 50 µM bilirubin. On the procedure:
as §1
DRG neurons from 3 to 5 week old mice were collected as described. After culture for 1–3 days, DRG neurons were transferred into a chamber with extracellular solution containing (in mM) 144 NaCl, 2.5 KCl, 2 CaCl2, 0.5 MgCl2, 5 HEPES, and 10 glucose, adjusted to pH 7.4 with NaOH. Whole-cell current-clamp recordings were performed at ~23°C using borosilicate capillary glass electrodes (Sutter Instrument) with a tip resistance of 3–5 MΩ. Internal solution contained (in mM) 80 K-acetate, 30 KCl, 40 HEPES, and 1 CaCl2, adjusted to pH 7.4 with potassium hydroxide (KOH). Small-diameter neurons with diameter 15–25 μm were chosen for patch-clamp. Data were acquired using an […] Amplifier and Digidata 1322A Digitizer with pClamp9.2 software package (Axon Instrument). […] Solutions containing 50 mM KCl were applied at the end of each cellular recording. Only neurons that could fire action potentials after adding KCl were regarded as healthy and appropriate for inclusion in data analysis.

For test [3], the system named is murine peritoneal mast cells. Description: Ca2+ imaging of murine peritoneal mast cells. The test is classed as cell-based, mouse. As to conditions: 100 µM bilirubin. The procedure: All cultured cells were maintained in DMEM supplemented with 10% FBS and 1% Penicillin/Streptomycin at 37°C, 5% CO2. All data included were generated from cells tested for mycoplasma and found to be negative. Cells were imaged in calcium imaging buffer (CIB; 10 mM HEPES, 1.2 mM NaHCO3, 130 mM NaCl, 3 mM KCl, 2.5 mM CaCl2, 0.6 mM MgCl2, 20 mM glucose, and 20 mM sucrose at pH 7.4 and 290–300 mOsm). To monitor changes in intracellular [Ca^2+] ([Ca^2+]i), cells were loaded with either Fura 2-AM (HEK293 cells) or Fluo 4-AM (DRG neurons and mast cells) for 30 min in the dark at 37°C in CIB just prior to imaging. With Fura 2-AM, emission at 510 nm was monitored from excitation at both 340 nm and 380 nm. With Fluo 4-AM, emission at 520 nm was monitored from excitation at 488 nm. Cells were identified as responding if the intracellular [Ca^2+] rose by either 50% compared to baseline or 50% compared to the [Ca^2+]i change assayed during addition of 50 mM KCl (neurons only). Damaged, detached, high-baseline, and motion-activated cells were excluded from analysis.
Mast cells were purified as described and plated onto glass coverslips coated with […] fibronectin and allowed to recover for 2 hr at 37°C. Cells were then loaded with Fluo-4 AM.
Adult male mice 8–12 weeks of age were sacrificed through CO2 inhalation. […]

In the next test the test system is DRG sensory neurons. Description: In vivo DRG calcium imaging in Pirt-Cre; lsl-GCaMP6s animals. On the set-up: species or system mouse. The conditions noted are these: 5 μL of 100 μM bilirubin into the paw of GCaMP6s mice. The procedure:
Adult mice expressing Pirt-Cre and lox-stop-lox GCaMP6s were anesthetized by i.p. injection of chloral hydrate (20 μl/gram of 25 mg/ml solution). The back was shaved and disinfected with alcohol before application of ophthalmic ointment (Lacrilube; Allergen Pharmaceuticals). A dorsal laminectomy was performed below the lumbar enlargement (L5) targeting S1. During the procedure, care was taken to keep dura intact. A 2 cm incision was made at the lumbar enlargement. 0.1 mL of 1% lidocaine was injected into paravertebral muscles before dissection to expose L3–L5 vertebrae. Using rongeurs, the surface aspect of the L4 DRG transverse process was removed and the underlying DRG exposed. Mice were laid abdomen-down on a custom-designed microscope stage and the spinal column was secured at two sites using clamps. Images were acquired using a laser-scanning confocal microscope (Leica LSI microscope) equipped with a […] 0.5 NA macro dry objective and fast EM-CCD camera. Live images were acquired at 8 to 10 frames in frame-scan mode per 7–8 s, at depths of […] below the dura with the DRG in the focal plane. […]
Raw image stacks were collected, deconvoluted, and imported into ImageJ (NIH). […] Calcium signaling amplitudes were expressed as Ft /F0 as a function of time. […]

As to `C=CC1=C(C)/C(=C/c2[nH]c(Cc3[nH]c(/C=C4\NC(=O)C(C)=C4C=C)c(C)c3CCC(=O)O)c(CCC(=O)O)c2C)NC1=O` [bilirubin, bilirubin IXα], the Percent activated neurons stood at 32% in test [1] (MRGPRX4-infected Mrgpr-cluster KO DRG), 14% in test [1] (Mrgpra1-infected Mrgpr-cluster KO DRG) and 1.3% in test [1] (uninfected Mrgpr-cluster KO DRG). In addition, the “Small-diameter neurons in which action potentials were elicited” value in test [2] (A1 KO DRG) is 0 out of 60; in test [2] (A1 KO DRG, listed as Bilirubin), 0 of 60; in test [2] (WT DRG), 5 out of 50; in test [2] (WT DRG, listed as Bilirubin) it was 5 of 50. The “Calcium response of peritoneal mast cells” value in test [3] is on record as “did not elicit a calcium response”. The “Activation of DRG sensory neurons in vivo” value in the test with DRG sensory neurons is “activated numerous DRG sensory neurons”.
